According to patent US20260265238A1, “COMPOUNDS AND PHARMACEUTICAL COMPOSITIONS THAT DEGRADE SWI/SNF-RELATED MATRIX-ASSOCIATED ACTIN-DEPENDENT REGULATOR OF CHROMATIN SUBFAMILY A” (Plexium, Inc., priority 2023, published 2026):

What was measured:
[1] = target: T1, SMARCA2-HiBiT HeLa cells (protein which is expressed from the SMARCA2 gene) (Homo sapiens, UniProt P51531); test: SMARCA2 degradation assay (HiBiT-fusion HeLa cell line, 24 h, luminescence); assay type: cell-based
T1 construct: protein which is expressed from the SMARCA2 and SMARCA4 genes; host or cells: HeLa (SMARCA2-HiBiT engineered line)
In short: (§1)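 HiBiT-fusion HeLa lines, 8,000 cells/well, overnight attachment; cpd 10-pt series (typically 10 μM–300 pM), 24 h, 37° C. Lysis with LgBiT + HiBiT substrate, 10 min shaking at RT, luminescence read. DC50 from dose-response fit; % degradation also scored at 1 μM.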

[2] = target: T2, SMARCA4-HiBiT HeLa cells (protein which is expressed from the SMARCA4 gene) (Homo sapiens, UniProt P51532); test: SMARCA4 degradation assay (HiBiT-fusion HeLa cell line, 24 h, luminescence); assay type: cell-based
T2 construct: protein which is expressed from the SMARCA2 and SMARCA4 genes; host or cells: HeLa (SMARCA4-HiBiT engineered line)
In short: as §1

T2 sequence (P51532 whole entry, the tested form may be a part): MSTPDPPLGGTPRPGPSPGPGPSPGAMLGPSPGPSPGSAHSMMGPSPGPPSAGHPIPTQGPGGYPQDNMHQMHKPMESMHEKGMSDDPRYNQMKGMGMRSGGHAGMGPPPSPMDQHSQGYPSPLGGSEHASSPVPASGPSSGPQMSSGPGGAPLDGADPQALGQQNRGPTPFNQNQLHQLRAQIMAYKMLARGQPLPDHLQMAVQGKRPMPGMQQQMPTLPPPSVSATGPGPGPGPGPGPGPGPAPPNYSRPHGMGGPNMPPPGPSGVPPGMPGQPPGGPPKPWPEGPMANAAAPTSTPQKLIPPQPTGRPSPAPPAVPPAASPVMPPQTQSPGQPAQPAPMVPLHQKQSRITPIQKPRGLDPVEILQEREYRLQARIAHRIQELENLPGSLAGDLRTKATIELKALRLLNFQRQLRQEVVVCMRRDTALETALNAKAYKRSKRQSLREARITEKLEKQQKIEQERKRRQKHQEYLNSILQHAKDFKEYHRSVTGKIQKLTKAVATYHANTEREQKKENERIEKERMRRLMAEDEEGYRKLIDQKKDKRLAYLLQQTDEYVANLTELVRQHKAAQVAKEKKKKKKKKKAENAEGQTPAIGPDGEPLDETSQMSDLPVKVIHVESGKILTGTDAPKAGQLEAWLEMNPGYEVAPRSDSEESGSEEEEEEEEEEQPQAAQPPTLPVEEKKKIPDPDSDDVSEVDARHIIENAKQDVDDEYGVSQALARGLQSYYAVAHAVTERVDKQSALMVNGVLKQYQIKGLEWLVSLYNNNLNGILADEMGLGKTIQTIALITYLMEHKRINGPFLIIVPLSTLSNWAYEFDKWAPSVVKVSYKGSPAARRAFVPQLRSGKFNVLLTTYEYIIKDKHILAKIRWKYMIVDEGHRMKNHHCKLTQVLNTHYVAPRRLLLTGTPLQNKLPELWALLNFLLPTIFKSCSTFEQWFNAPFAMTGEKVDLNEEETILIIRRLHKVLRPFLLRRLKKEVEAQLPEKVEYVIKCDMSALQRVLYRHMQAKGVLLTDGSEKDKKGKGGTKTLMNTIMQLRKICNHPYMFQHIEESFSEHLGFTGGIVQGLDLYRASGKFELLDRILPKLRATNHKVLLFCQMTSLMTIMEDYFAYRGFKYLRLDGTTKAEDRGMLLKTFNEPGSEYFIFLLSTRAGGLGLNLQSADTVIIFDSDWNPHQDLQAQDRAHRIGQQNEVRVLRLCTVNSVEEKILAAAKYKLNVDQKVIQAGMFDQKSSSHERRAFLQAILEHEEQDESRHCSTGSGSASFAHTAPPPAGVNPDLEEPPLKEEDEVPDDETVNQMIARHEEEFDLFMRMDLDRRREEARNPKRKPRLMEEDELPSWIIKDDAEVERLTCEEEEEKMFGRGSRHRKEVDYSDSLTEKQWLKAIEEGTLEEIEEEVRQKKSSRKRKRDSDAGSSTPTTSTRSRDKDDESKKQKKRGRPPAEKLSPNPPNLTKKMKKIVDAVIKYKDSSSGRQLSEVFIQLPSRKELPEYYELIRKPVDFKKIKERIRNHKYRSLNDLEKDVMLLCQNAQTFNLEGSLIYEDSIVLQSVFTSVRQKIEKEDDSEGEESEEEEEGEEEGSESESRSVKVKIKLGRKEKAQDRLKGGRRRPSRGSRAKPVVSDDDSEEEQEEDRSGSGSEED
T1 sequence (P51531 whole entry, the tested form may be a part): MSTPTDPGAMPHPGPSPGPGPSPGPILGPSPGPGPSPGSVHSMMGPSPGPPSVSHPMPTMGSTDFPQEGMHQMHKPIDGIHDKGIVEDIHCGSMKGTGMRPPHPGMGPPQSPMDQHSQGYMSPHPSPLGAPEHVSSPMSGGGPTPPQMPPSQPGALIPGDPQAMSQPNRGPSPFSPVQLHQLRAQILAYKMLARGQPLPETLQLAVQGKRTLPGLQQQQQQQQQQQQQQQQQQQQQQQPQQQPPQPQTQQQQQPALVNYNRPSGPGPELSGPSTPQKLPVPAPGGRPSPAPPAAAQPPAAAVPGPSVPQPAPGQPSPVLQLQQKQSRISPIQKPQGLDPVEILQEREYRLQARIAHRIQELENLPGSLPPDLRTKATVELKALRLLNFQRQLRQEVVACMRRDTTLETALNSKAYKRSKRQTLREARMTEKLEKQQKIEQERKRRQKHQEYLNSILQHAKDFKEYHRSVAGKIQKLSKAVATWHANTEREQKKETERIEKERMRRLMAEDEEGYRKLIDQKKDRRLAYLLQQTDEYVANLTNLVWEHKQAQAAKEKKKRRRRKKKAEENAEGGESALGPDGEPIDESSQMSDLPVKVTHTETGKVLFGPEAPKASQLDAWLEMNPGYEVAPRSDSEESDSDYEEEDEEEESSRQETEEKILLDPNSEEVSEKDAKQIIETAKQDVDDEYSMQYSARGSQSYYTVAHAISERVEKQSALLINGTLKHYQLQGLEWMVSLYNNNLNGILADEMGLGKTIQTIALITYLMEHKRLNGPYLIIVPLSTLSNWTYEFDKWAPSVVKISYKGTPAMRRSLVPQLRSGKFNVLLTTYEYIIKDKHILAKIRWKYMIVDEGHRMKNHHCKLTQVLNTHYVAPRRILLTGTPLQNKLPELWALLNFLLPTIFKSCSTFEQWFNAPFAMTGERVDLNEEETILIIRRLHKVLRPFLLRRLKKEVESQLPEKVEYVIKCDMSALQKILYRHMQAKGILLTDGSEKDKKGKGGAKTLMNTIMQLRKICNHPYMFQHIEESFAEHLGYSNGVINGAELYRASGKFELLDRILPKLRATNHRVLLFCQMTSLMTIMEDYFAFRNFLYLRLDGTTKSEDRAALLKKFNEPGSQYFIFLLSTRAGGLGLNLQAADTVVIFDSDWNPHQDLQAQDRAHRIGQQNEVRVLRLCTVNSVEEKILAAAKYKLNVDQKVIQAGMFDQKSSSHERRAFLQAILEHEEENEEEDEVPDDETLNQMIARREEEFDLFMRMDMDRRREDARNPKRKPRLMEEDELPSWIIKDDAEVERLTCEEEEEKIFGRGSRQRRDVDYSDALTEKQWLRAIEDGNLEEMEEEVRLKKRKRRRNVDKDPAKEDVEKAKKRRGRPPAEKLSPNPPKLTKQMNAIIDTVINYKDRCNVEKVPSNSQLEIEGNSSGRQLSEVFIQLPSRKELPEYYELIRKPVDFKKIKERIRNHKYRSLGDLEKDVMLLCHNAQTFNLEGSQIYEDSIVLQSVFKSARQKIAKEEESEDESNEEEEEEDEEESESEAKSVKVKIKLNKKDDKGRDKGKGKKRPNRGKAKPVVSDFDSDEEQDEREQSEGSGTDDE

DC50 [1]	SMARCA2 % Degradation @ 1 μM [1]	DC50 [2]	inhibition at 1 µM [2]	SMILES
50 to 500 nM	++ (++=30-70%)	50 to 500 nM	30 to 70%	C[C@H]1CN(c2ccnc(C#CCNc3ccn(C)n3)n2)CCN1c1cc(-c2ccccc2O)nnc1N [Compound P-328, 0-{5-[(S)-2-methyl-4-{2-[3-(1-methyl-3-pyrazolylamino)-1-propynyl]-4-pyrimidinyl}-1-piperazinyl]-6-amino-3-pyridazinyl}phenol]
50 to 500 nM	++ (++=30-70%)	50 to 500 nM	< 30%	C[C@H]1CN(c2ccnc(C#CCn3cccn3)n2)CCN1c1cc(-c2ccccc2O)nnc1N [Compound P-329, 0-{5-[(S)-2-methyl-4-{2-[3-(1-pyrazolyl)-1-propynyl]-4-pyrimidinyl}-1-piperazinyl]-6-amino-3-pyridazinyl} phenol]
50 to 500 nM	++ (++=30-70%)	50 to 500 nM	< 30%	C[C@H]1CN(c2ccnc(C#CCn3cncn3)n2)CCN1c1cc(-c2ccccc2O)nnc1N [Compound P-330, 0-{5-[(S)-2-methyl-4-{2-[3-(1H-1,2,4-triazol-1-yl)-1-propynyl]-4-pyrimidinyl}-1-piperazinyl]-6-amino-3-pyridazinyl} phenol]
50 to 500 nM	++ (++=30-70%)	50 to 500 nM	< 30%	C[C@@H]1CCN(c2cc(-c3ccccc3O)nnc2N)CCN1c1ccnc(C#CCNc2ccn(C)n2)n1 [Compound P-331, 0-{5-[(R)-5-methyl-4-{2-[3-(1-methyl-3-pyrazolylamino)-1-propynyl]-4-pyrimidinyl}-1,4-diazepan-1-yl]-6-amino-3-pyridazinyl}phenol]
< 50 nM	++ (++=30-70%)	50 to 500 nM	< 30%	C[C@@H]1CCN(c2cc(-c3ccccc3O)nnc2N)CCN1c1ccnc(C#CCn2cccn2)n1 [Compound P-332, 0-{5-[(R)-5-methyl-4-{2-[3-(1-pyrazolyl)-1-propynyl]-4-pyrimidinyl}-1,4-diazepan-1-y1]-6-amino-3-pyridazinyl}phenol]
50 to 500 nM	++ (++=30-70%)	50 to 500 nM	< 30%	C[C@@H]1CCN(c2cc(-c3ccccc3O)nnc2N)CCN1c1ccnc(C#CCn2cncn2)n1 [Compound P-333, 0-{5-[(R)-5-methyl-4-{2-[3-(1H-1,2,4-triazol-1-yl)-1-propynyl]-4-pyrimidinyl}-1,4-diazepan-1-y1]-6-amino-3-pyridazinyl} phenol]
50 to 500 nM	++ (++=30-70%)	50 to 500 nM	< 30%	C[C@@H]1CCN(c2cc(-c3ccccc3O)nnc2N)CCN1c1ccnc(C#CCN2CCOCC2)n1 [Compound P-334, 0-(5-{(R)-5-methyl-4-[2-(3-morpholino-1-propynyl)-4-pyrimidinyl]-1,4-diazepan-1-yl}-6-amino-3-pyridazinyl)phenol]
< 50 nM	++ (++=30-70%)	< 50 nM	30 to 70%	C[C@@H]1CCN(c2cc(-c3ccccc3O)nnc2N)CCN1c1ccnc(C#CCN2CCCCC2)n1 [Compound P-335, 0-(5-{(R)-5-methyl-4-[2-(3-piperidino-1-propynyl)-4-pyrimidinyl]-1,4-diazepan-1-y1}-6-amino-3-pyridazinyl)phenol]
50 to 500 nM	++ (++=30-70%)	50 to 500 nM	< 30%	Cc1nn2ccn(CC#Cc3nccc(N4CCN(c5cc(-c6ccccc6O)nnc5N)CC[C@H]4C)n3)c(=O)c2c1C [Compound P-336, 5-[3-(4-{ (R)-4-[3-amino-6-(o-hydroxyphenyl)-4-pyridazinyl]-7-methyl-1,4-diazepan-1-yl}-2-pyrimidinyl)-2-propynyl]-2,3-dimethyl-1,5,7a-triaza-4(5H)-indenone]

Further lines, the compound ahead of its results:

SMILES	DC50 [1]	SMARCA2 % Degradation @ 1 μM [1]	DC50 [2]	inhibition at 1 µM [2]
C[C@H]1CN(c2ccnc(C#CCN3CCCCC3)n2)CCN1c1cc(-c2ccccc2O)nnc1N [Compound P-319, 0-(5-{(S)-2-methyl-4-[2-(3-piperidino-1-propynyl)-4-pyrimidinyl]-1-piperazinyl}-6-amino-3-pyridazinyl)phenol]	< 50 nM	++ (++=30-70%)	< 50 nM	< 30%
C[C@H](O)C#Cc1nccc(N2CCCN(c3cc(-c4ccccc4O)nnc3N)CC2)n1 [Compound P-321, 0-[5-(4-{2-[(S)-3-hydroxy-1-butynyl]-4-pyrimidinyl}-1,4-diazepan-1-yl)-6-amino-3-pyridazinyl]phenol]	50 to 500 nM	++ (++=30-70%)	50 to 500 nM	30 to 70%
C[C@@H](O)C#Cc1nccc(N2CCCN(c3cc(-c4ccccc4O)nnc3N)CC2)n1 [Compound P-322, 0-[5-(4-{2-[(R)-3-hydroxy-1-butynyl]-4-pyrimidinyl}-1,4-diazepan-1-yl)-6-amino-3-pyridazinyl]phenol]	50 to 500 nM	++ (++=30-70%)	50 to 500 nM	30 to 70%
CSCC#Cc1nccc(N2CCCN(c3cc(-c4ccccc4O)nnc3N)CC2)n1 [Compound P-323, 0-[6-amino-5-(4-{2-[3-(methylthio)-1-propynyl]-4-pyrimidinyl}-1,4-diazepan-1-yl)-3-pyridazinyl]phenol]	50 to 500 nM	++ (++=30-70%)	50 to 500 nM	30 to 70%
Nc1nnc(-c2ccccc2O)cc1N1CCCN(c2ccnc(C#CCNC(=O)NC3CC3)n2)CC1 [Compound P-324, 0-[6-amino-5-(4-{2-[3-(3-cyclopropylureido)-1-propynyl]-4-pyrimidinyl}-1,4-diazepan-1-yl)-3-pyridazinyl]phenol]	500 to 5000 nM	++ (++=30-70%)	500 to 5000 nM	< 30%
Nc1nnc(-c2ccccc2O)cc1N1CCCN(c2ccnc(C#CCNC(=O)NC3CCC3)n2)CC1 [Compound P-325, 0-[6-amino-5-(4-{2-[3-(3-cyclobutylureido)-1-propynyl]-4-pyrimidinyl}-1,4-diazepan-1-yl)-3-pyridazinyl]phenol]	500 to 5000 nM	++ (++=30-70%)	50 to 500 nM	30 to 70%
CCNC(=O)NCC#Cc1nccc(N2CCCN(c3cc(-c4ccccc4O)nnc3N)CC2)n1 [Compound P-326, 0-[6-amino-5-(4-{2-[3-(3-ethylureido)-1-propynyl]-4-pyrimidinyl}-1,4-diazepan-1-yl)-3-pyridazinyl]phenol]	500 to 5000 nM	++ (++=30-70%)	500 to 5000 nM	< 30%
CC(C)NC(=O)NCC#Cc1nccc(N2CCCN(c3cc(-c4ccccc4O)nnc3N)CC2)n1 [Compound P-327, 0-[6-amino-5-(4-{2-[3-(3-isopropylureido)-1-propynyl]-4-pyrimidinyl}-1,4-diazepan-1-yl)-3-pyridazinyl]phenol]	500 to 5000 nM	++ (++=30-70%)	500 to 5000 nM	30 to 70%
